Assay results: ChEMBL document CHEMBL1201862, “PubChem BioAssay data set” (2004)
Calls of active or inactive are those of the source.

How the values were obtained:
[1] = luciferase reporter signal suppression in cells – H4 neuroglioma cells, luminescence, dose response (AID 1990); format: functional, cell-based
[2] = Luminescence Cell-Based Dose Response HTS to Identify Inhibitors of 5'UTR Stem-Loop Driven Prion Protein mRNA Translation in H4 Neuroglioblastoma Cells. [Related pubchem assays: 1827 (Project Summary), 1813 (Primary HTS)]; format: functional
[3] = alpha-synuclein stem-loop luciferase translation blockers – H4 neuroglioma cells, luminescence, confirmation (AID 1988); format: functional, cell-based
Cytochrome P450 1A2 = target: T1, Cytochrome P450 1A2 (Homo sapiens, UniProt P05177);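 also: PubChem cytochrome P450 panel assay, CYP1A2 panel member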
T1 sequence (P05177 whole entry): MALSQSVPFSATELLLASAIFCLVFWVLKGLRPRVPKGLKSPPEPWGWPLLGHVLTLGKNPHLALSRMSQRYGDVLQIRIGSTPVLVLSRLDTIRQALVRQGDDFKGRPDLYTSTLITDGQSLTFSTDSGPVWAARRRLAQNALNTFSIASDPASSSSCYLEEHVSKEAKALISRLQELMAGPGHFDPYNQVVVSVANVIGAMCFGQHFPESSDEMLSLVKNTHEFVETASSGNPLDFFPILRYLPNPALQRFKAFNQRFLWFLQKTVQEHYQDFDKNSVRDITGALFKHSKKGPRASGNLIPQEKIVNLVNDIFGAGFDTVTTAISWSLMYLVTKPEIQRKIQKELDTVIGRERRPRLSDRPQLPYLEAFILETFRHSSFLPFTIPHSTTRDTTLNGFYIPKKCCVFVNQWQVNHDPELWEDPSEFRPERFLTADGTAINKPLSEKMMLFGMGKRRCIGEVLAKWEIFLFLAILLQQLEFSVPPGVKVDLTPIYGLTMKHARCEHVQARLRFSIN

Cytochrome P450 2D6 = Cytochrome P450 2D6 (Homo sapiens, UniProt P10635);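 also: CYP2D6 member of a cytochrome P450 panel assay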
[4] = microbe, parasite or virus in culture; format: functional; details: Mycobacterium tuberculosis
Cytochrome P450 3A4 = Cytochrome P450 3A4 (Homo sapiens, UniProt P08684);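 also: CYP3A4 tested as one member of a cytochrome P450 panel screen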
Cytochrome P450 2C9 = Cytochrome P450 2C9 (Homo sapiens, UniProt P11712)
H9c2 = assay: cells; format: functional, cell-based; details: Rattus norvegicus, H9c2, Myocardium
[5] = Trypanosoma cruzi growth suppression in host cells – NIH3T3 host cells, beta-gal luminescence, confirmation (AID 2044); format: functional, cell-based;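 also: intracellular parasites grown in NIH/3T3 mouse fibroblasts as host cells; luminescent beta-galactosidase reporter signal from transgenic T. cruzi replicating inside host cells; inhibitors lower the luminescence signal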
[6] = NIH3T3 cell viability loss – ATP luminescence, mouse fibroblasts, counter-screen, dose response (AID 2010); format: functional, cell-based;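 also: cells exposed to compound for about 90 hours before reading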
Cytochrome P450 2C19 = Cytochrome P450 2C19 (Homo sapiens, UniProt P33261); assay: Cytochrome panel assay with activity outcomes. Panel member name: p450-cyp2c19 Compounds with AC50 equal or less than 10 uM are considered active; format: functional; details: read-out: AC50
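For IC50 in this document: confirmatory concentration-response retest of ultra-high-throughput screening hits for modulation of myocardial damage; cell death induced by hydrogen peroxide oxidative stress; compound pretreatment for 60 min then peroxide exposure for 2 h; potency is for protecting the cells against peroxide damage rather than for killing them.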

Sequence of Cytochrome P450 2D6 (P10635 whole entry): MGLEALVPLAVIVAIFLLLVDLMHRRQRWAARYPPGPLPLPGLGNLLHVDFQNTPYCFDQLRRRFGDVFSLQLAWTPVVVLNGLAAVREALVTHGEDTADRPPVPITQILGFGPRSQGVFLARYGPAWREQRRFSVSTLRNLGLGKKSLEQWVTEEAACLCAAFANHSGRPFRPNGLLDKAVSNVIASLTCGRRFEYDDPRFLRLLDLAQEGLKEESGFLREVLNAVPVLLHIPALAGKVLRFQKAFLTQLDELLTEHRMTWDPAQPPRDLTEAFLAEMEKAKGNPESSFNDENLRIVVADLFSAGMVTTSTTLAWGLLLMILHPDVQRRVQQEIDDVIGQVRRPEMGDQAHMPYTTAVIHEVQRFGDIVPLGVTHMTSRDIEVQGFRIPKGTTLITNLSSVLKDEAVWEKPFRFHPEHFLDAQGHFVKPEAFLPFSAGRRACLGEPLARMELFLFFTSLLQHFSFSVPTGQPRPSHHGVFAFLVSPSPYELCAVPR
Sequence of Cytochrome P450 3A4 (P08684 whole entry): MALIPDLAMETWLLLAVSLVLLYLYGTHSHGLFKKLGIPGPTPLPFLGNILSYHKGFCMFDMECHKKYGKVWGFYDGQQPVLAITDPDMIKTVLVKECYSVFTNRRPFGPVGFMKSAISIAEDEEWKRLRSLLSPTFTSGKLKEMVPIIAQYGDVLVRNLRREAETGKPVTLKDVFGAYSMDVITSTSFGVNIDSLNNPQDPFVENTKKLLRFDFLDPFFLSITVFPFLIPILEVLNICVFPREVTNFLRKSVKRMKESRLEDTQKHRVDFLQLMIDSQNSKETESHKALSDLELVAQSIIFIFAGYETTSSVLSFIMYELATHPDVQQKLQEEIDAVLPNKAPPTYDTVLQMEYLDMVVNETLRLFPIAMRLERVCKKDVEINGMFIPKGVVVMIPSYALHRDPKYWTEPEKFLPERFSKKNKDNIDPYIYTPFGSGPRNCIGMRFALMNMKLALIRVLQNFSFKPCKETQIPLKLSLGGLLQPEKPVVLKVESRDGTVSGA
Sequence of Cytochrome P450 2C9 (P11712 whole entry): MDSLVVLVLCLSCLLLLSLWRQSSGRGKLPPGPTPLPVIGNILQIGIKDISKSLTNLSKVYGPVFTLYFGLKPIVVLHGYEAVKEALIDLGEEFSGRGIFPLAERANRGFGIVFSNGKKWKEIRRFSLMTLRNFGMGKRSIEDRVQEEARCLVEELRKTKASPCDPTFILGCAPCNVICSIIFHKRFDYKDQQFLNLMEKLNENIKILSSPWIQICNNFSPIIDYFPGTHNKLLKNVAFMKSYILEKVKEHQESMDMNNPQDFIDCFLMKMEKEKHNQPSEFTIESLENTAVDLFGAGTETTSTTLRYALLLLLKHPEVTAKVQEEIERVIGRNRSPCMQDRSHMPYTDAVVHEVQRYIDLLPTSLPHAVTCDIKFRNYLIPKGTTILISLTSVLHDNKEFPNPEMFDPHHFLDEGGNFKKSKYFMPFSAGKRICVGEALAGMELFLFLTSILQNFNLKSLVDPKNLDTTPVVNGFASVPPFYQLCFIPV
Sequence of Cytochrome P450 2C19 (P33261 whole entry): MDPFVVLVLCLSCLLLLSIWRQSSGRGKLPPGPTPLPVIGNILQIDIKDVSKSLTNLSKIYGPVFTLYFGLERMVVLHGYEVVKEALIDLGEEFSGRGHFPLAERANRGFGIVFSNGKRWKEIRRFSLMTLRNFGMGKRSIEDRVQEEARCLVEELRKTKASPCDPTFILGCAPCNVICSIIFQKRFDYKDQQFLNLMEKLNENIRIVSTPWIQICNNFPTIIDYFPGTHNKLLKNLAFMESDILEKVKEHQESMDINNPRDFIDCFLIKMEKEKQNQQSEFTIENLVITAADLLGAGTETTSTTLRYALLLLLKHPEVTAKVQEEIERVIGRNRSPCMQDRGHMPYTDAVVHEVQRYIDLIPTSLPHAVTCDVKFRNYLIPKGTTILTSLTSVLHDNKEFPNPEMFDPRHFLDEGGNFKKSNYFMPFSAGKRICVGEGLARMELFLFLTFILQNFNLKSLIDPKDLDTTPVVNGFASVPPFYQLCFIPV

## CC(=O)c1cccc(NC(=O)CN2C(=O)COc3ccc(S(=O)(=O)N4CCOCC4)cc32)c1
[1]
  EC50: > 120 µM (not active)
[2]
  EC50: > 120 µM (not active)
[3]
  EC50: > 120 µM (not active)

## COC(=O)COc1ccc(-c2nccc(-c3ccccn3)n2)cc1
[1]
  EC50: < 0.1 µM (active)
[2]
  EC50: 7.98 µM (active)
[3]
  EC50: 0.159 µM (active)

## COc1ccccc1-n1c(SCC(=O)Nc2ccccc2F)nc2nncc-2c1O
Cytochrome P450 1A2
  AC50: 28.2 µM (inconclusive)
Cytochrome P450 2D6
  AC50: 8.91 µM (inconclusive)

## CCOP(=O)(OCC)c1nc(-c2ccc(Cl)cc2Cl)oc1N1CCCCC1
[1]
  EC50: > 120 µM (not active)
[2]
  EC50: > 120 µM (not active)
[3]
  EC50: 20.3 µM (active)

## C/C(=N\Nc1ccc(S(=O)(=O)N2CCCCC2)cn1)c1cccc(Br)c1
[4]
  CC50: > 40 µM (active)

## CN1CC[C@@]2(CCCN(C(=O)c3ccco3)C2)C1
Cytochrome P450 2D6
  AC50: 20 µM (inconclusive)
Cytochrome P450 3A4
  AC50: 20 µM (inconclusive)

## CC(NC(=O)Cc1ccc(F)cc1)c1ccccc1 (stereo unspecified)
Cytochrome P450 2C9
  AC50: 10 µM (inconclusive)
Cytochrome P450 2D6
  AC50: 15.8 µM (inconclusive)
Cytochrome P450 3A4
  AC50: 25.1 µM (inconclusive)

## CCOC(=O)C(Cc1ccc(NC(=O)/C(=C/c2ccc(OC(C)=O)cc2)NC(C)=O)cc1)N1C(=O)c2ccccc2C1=O (stereo unspecified)
H9c2
  IC50: > 79 µM (inactive)

## O=C(C[C@H]1C/C=C\CC[C@H](Cc2ccc(F)cc2)C(=O)O[C@@H](c2ccccc2)CNC1=O)N[C@H](CO)Cc1ccccc1
H9c2
  IC50: > 79 µM (inactive)

## Cn1cccc1C(=O)N1CCC2(CC1)CN(Cc1cc(C(F)(F)F)cc(C(F)(F)F)c1)C2
Cytochrome P450 1A2
  AC50: 10 µM (inconclusive)
Cytochrome P450 2D6
  AC50: 25.1 µM (inconclusive)

## CCn1nc(C(=O)NNC(=O)c2cc(Cl)ccc2OC)c2ccccc2c1=O
H9c2
  IC50: > 79 µM (inactive)

## Cc1ccc2nc(N/N=C/c3ccccc3C#N)nc(-c3ccccc3)c2c1
[4]
  CC50: 28.8 µM (active)

## Cn1c(C(=O)NCCc2ccsc2)cc2c(=O)n(C)c3ccccc3c21
H9c2
  IC50: > 79 µM (inactive)

## Cc1ccc(S(=O)(=O)N2CCN(C(=O)CCc3nc(O)c4ccccc4n3)CC2)c(C)c1
H9c2
  IC50: > 79 µM (inactive)

## COc1cccc(Nc2nc3ccccc3n3nnnc23)c1
H9c2
  IC50: > 79 µM (inactive)

## OC(c1ccccc1)(c1ccc(F)cc1)C(c1ccccc1)N1CCOCC1 (stereo unspecified)
Cytochrome P450 2D6
  AC50: 14.1 µM (inconclusive)

## O=C(CN1CCCCC1)Nc1nc(-c2ccc(F)c(F)c2)cs1
H9c2
  IC50: > 79 µM (inactive)

## CCOC(=O)Cc1csc(NC(=O)c2c(O)c3c(n(CC(C)C)c2=O)CCCC3)n1
[4]
  CC50: > 40 µM (active)

## O=C(c1ccccc1)c1c[nH]c(C(=O)NCc2cccnc2)c1
Cytochrome P450 2D6
  AC50: 15.8 µM (inconclusive)

## Clc1nc2c(-c3ccccc3)nnn2c2ccccc12
[5]
  EC50: 2.55 µM (active)
[6]
  EC50: > 60 µM (not active)
[4]
  CC50: 27.3 µM (active)

## CCCCCn1nc(C(=O)OCC(=O)c2c(N)n(C)c(=O)n(C)c2=O)c2ccccc2c1=O
H9c2
  IC50: > 79 µM (inactive)

## O=C(Cc1ccccc1[N+](=O)[O-])NCCSCc1c(F)cccc1Cl
Cytochrome P450 1A2
  AC50: 5.62 µM (inconclusive)
Cytochrome P450 2D6
  AC50: 2.82 µM (inconclusive)

## Cc1ccc(NC(=O)CSC(C)C(=O)OCc2cc(=O)oc3cc(O)ccc23)cc1 (stereo unspecified)
H9c2
  IC50: > 79 µM (inactive)

## Cn1cc(-c2nc3cnc(N4CCNCC4)nc3n(Cc3ccc(F)cc3)c2=O)c2ccccc21
Cytochrome P450 1A2
  AC50: 20 µM (inconclusive)
Cytochrome P450 2D6
  AC50: 20 µM (inconclusive)

## C/C(CCN1CCCCc2nc(C)c(C)cc21)=N\OC[C@@H](O)COCc1ccco1
Cytochrome P450 2D6
  AC50: 7.94 µM (inconclusive)

## O=C(CSc1ccc(Cl)cc1)N1CCC(c2nc3ccccc3s2)CC1
[4]
  CC50: 34.7 µM (active)

## NC(=O)/C(=C\c1ccncc1)c1cccc2ccccc12
Cytochrome P450 2D6
  AC50: 2 µM (inconclusive)

## CC(=O)Nc1cccc(NC(=O)c2cc(-c3cccnc3)nc3ccc(Cl)cc23)c1
H9c2
  IC50: > 79 µM (inactive)

## CC1CCc2cc(F)ccc2N1C(=O)CSc1n[nH]c2c3cc(F)ccc3nc-2n1 (stereo unspecified)
Cytochrome P450 2C19
  AC50: 0.562 µM (inconclusive)
Cytochrome P450 2D6
  AC50: 14.1 µM (inconclusive)

## Fc1ccc(Nc2ccnc(-c3ccoc3)n2)cc1
Cytochrome P450 2D6
  AC50: 20 µM (inconclusive)
